Source: US4562183A, “Perfluoro-1-azabicyclo(5,3,0)decane compounds useful as blood substitutes” (I.S.C. Chemicals Limited, priority 1982, dated 1985)
Like-named read-outs stand apart in the source and are kept apart here.

What was measured:
[1] = Stability of emulsion with yolk phospholipids; assay type: physicochemical; conditions: heating at 100° C. for 30 minutes and storage at 4° C. and 25° C. for 2 weeks
Description: In order to evaluate the feasibility of emulsification, ABCD was emulsified with yolk phospholipids by using a Manton-Gaulin homogenizer and the stability to heating at 100° C. for 30 minutes and storage at 4° C. and 25° C. for 2 weeks were examined.

[2] = Oxygen solubility in fluorocarbon; assay type: physicochemical; conditions: oxygen-saturated at 20° C.; corrected for vapour pressure of fluorocarbon
Description: A portion of 20 ml. of ABCD was degassed by boiling and cooled to 20° C. while being bubbled with oxygen gas. The oxygen-saturated liquid was then degassed under vacuum and the gas evolved was collected and its volume measured at a known temperature and pressure. After allowing for the vapour pressure of the fluorocarbon, the solubility of oxygen was calculated to be in the range 45±10 mls of O2 (at 760 mm Hg & 0° C.) per 100 ml. of fluorocarbon. The solubility of oxygen in ABCD is thus adequate to permit the use of this fluorocarbon as an oxygen carrier for medical use.

[3] = Solubilities at 25° C. of perfluoro-1-azabicyclo(5,3,0)decane in solvents; assay type: physicochemical
Source text: Solubility of perfluoro-1-
azabicyclo(5,3,0)decane in […]

[4] = Excretion rate from the organs; assay type: in vivo, rats
Description: (§1) ABCD was evaluated as candidate for an artificial blood substitute from the aspects of toxicity, feasibility of emulsification and excretion rate from the organs.

[5] = Retention in body organs with time (gas chromatography); assay type: in vivo, rats; conditions: rat, 0.32 mL/100 g, 0.32 ml. fluorocarbon per 100 gm body weight; for concentration at 120 h: 5 Days; for concentration at 168 h: 7 Days (Av. of 2); for concentration at 240 h: 10 Days; for concentration at 504 h: 21 Days
Description: 4. RETENTION OF PERFLUORO-1-AZABICYCLO(5,3,0)DECANE BODY ORGANS WITH TIME
Gas chromatography results--rats injected with emulsion of ABCD (0.32 ml. fluorocarbon per 100 gm body weight). The following residual fluorocarbon concentrations were observed. (In mg. fluorocarbon/gm tissue).

[6] = Toxicity: weight gain of rats administered emulsion; assay type: in vivo; conditions: Wistar strain male rats, ABCD emulsion, 4 g/kg as ABCD
Description: as §1

[7] = Emulsion forming capacity with Pluronic F68, standing overnight; assay type: physicochemical; conditions: for Emulsification time to form emulsion: Pluronic F68 in deionised water, high speed mixer; for Separation (creaming) of the emulsion: standing at room temperature overnight, Pluronic F68
Description: To 10 ml. of perfluoro-1-azabicyclo(5,3,0)decane (ABCD) was added 10 ml. of solution made by dissolving 8.0 g of a non-ionic, polyoxyethylene-polyoxypropylene surfactant ('Pluronic F68', RTM) in 220 ml. of deionised water. The mixture was emulsified for a few minutes using a high speed mixer to form an emulsion having the appearance of diluted milk.
In a comparison test, an emulsion was formed using perfluorodecalin. An emulsion of similar appearance to that formed with ABCD required about 10 minutes emulsification.

[8] = Base stability of fluorination product; assay type: physicochemical
[9] = aqueous media; cited from earlier work
[10] = in vivo; cited from earlier work
[11] = heart, read-out: Residual fluorocarbon concentration, heart
[12] = kidney, read-out: Residual fluorocarbon concentration, kidney
[13] = liver, read-out: Residual fluorocarbon concentration, liver
[14] = lung, read-out: Residual fluorocarbon concentration, lung
[15] = spleen, read-out: Residual fluorocarbon concentration, spleen

FC1(F)N2C(F)(F)C(F)(F)C(F)(F)C2(F)C(F)(F)C(F)(F)C(F)(F)C1(F)F (stereo not shown) [ABCD, perfluoro-1-azabicyclo(5,3,0)decane]
Stability of emulsion [1]: acceptably stable
Solubility of oxygen [2]: 45±10 mls of O2 (at 760 mm Hg & 0° C.) per 100 ml. of fluorocarbon
Solubility in acetone ([3]; acetone): 6.84 g in 100 g solvent
Solubility in hexane ([3]; hexane): miscible
Solubility in methanol ([3]; methanol): 1.36 g in 100 g solvent
Solubility in trichloro-trifluoroethane ([3]; trichloro-trifluoroethane): miscible
Solubility in water ([3]; water): hardly soluble
Amount detected in all organs ([4]; 2 weeks after injection): only trace amounts
Elimination from the organs ([4]; after injection): very rapidly eliminated from the organs
concentration at 120 h [5, 11]: 130000 ng/g
concentration at 120 h [5, 12]: 170000 ng/g
concentration at 120 h [5, 13]: 1.18e+07 ng/g
concentration at 120 h [5, 14]: 560000 ng/g
concentration at 120 h [5, 15]: 4.35e+07 ng/g
concentration at 168 h [5, 11]: 450000 ng/g
concentration at 168 h [5, 12]: 100000 ng/g
concentration at 168 h [5, 13]: 6.73e+06 ng/g
concentration at 168 h [5, 14]: 100000 ng/g
concentration at 168 h [5, 15]: 2.23e+07 ng/g
concentration at 240 h [5, 11]: 260000 ng/g
concentration at 240 h [5, 12]: 190000 ng/g
concentration at 240 h [5, 13]: 2.51e+06 ng/g
concentration at 240 h [5, 14]: 160000 ng/g
concentration at 240 h [5, 15]: 1.2e+08 ng/g
concentration at 336 h ([5]; 14 Days (* not Av. of 2), spleen, read-out: Residual fluorocarbon concentration, spleen): 3.69e+06 ng/g
concentration at 336 h ([5]; 14 Days (Av. of 2), heart, read-out: Residual fluorocarbon concentration, heart): 180000 ng/g
concentration at 336 h ([5]; 14 Days (Av. of 2), kidney, read-out: Residual fluorocarbon concentration, kidney): 150000 ng/g
concentration at 336 h ([5]; 14 Days (Av. of 2), liver, read-out: Residual fluorocarbon concentration, liver): 380000 ng/g
concentration at 336 h ([5]; 14 Days (Av. of 2), lung, read-out: Residual fluorocarbon concentration, lung): 150000 ng/g
concentration at 504 h [5, 11]: 160000 ng/g
concentration at 504 h [5, 12]: 160000 ng/g
concentration at 504 h [5, 13]: 40000 ng/g
concentration at 504 h [5, 14]: 150000 ng/g
concentration at 504 h [5, 15]: 1.12e+06 ng/g
Weight gain [6]: gained weight favourably
Emulsification time to form emulsion [7]: a few minutes
Separation (creaming) of the emulsion [7]: minor amount of separation ('creaming')

FC(F)(F)C1(F)N2C(F)(F)C(F)(F)C(F)(F)C2(F)C(F)(F)C(F)(F)C(F)(F)C1(F)F (stereo not shown) [perfluoro-1-aza-2-methyl(5,3,0)decane]
Stability to base [8]: base-stable

FC1(F)C(F)(F)C(F)(F)C2(F)C(F)(F)C(F)(F)C(F)(F)C(F)(F)C2(F)C1(F)F (stereo not shown) [perfluorodecalin, reference compound]
Emulsion stability [9]: does not easily give a stable emulsion in aqueous media
Emulsification time to form emulsion [7]: about 10 minutes
Separation (creaming) of the emulsion [7]: pronounced creaming

FC(F)(F)C(F)(F)C(F)(F)N(C(F)(F)C(F)(F)C(F)(F)F)C(F)(F)C(F)(F)C(F)(F)F [perfluorotripropylamine]
Emulsion stability [9]: gives a more stable emulsion than perfluorodecalin
Retention time in the body [10]: longer retention time in the body
